A value given as a limit tells only on which side of the number the result lay.

One assay in a line: Inhibitory concentration against protein phosphatase 1 (PP1) using pNPP assay.
A word on the IC50: it is the concentration at which inhibition is half-maximal. `CO[C@@H](Cc1ccccc1)[C@@H](C)/C=C(C)/C=C/[C@H](NC(C)=O)[C@H](C)C(=O)N1CCC[C@@H]1C(=O)O` [(R)-1-((4E,6E)-(2S,3S,8S,9S)-3-Acetylamino-9-methoxy-2,6,8-trimethyl-10-phenyl-deca-4,6-dienoyl)-pyrrolidine-2-carboxylic acid] gave an IC50 greater than 55 µM.
Take `CO[C@@H](Cc1ccccc1)[C@@H](C)/C=C(C)/C=C/[C@H](NC(C)=O)[C@H](C)C(=O)N1C[C@H](C(=O)O)C[C@@H]1C(=O)O` [(2R,4R)-1-((4E,6E)-(2S,3S,8S,9S)-3-Acetylamino-9-methoxy-2,6,8-trimethyl-10-phenyl-deca-4,6-dienoyl)-pyrrolidine-2,4-dicarboxylic acid]: the IC50 is greater than 100 µM.
`CC(=O)N[C@@H](/C=C/C(C)=C/c1ccccc1Cc1ccccc1)[C@H](C)C(=O)N[C@H](C)C(=O)O` [(R)-2-[(4E,6E)-(2S,3S)-3-Acetylamino-7-(2-benzyl-phenyl)-2,6-dimethyl-hepta-4,6-dienoylamino]-propionic acid]: the IC50 was greater than 100 µM.
Regarding `CO[C@@H](Cc1ccccc1)[C@@H](C)/C=C(C)/C=C/[C@H](NC(C)=O)[C@H](C)C(=O)N1[C@@H](C(=O)O)CC[C@H]1C(=O)O` [(2R,5S)-1-((4E,6E)-(2S,3S,8S,9S)-3-Acetylamino-9-methoxy-2,6,8-trimethyl-10-phenyl-deca-4,6-dienoyl)-pyrrolidine-2,5-dicarboxylic acid], the IC50 is greater than 50 µM.
The same measure, in the same setting: the figure for `CO[C@@H](Cc1ccccc1)[C@@H](C)/C=C(C)/C=C/[C@H](NC(C)=O)[C@H](C)C(=O)N1C[C@H](O[Si](C(C)C)(C(C)C)C(C)C)C[C@@H]1C(=O)O` [(2R,4R)-1-((4E,6E)-(2S,3S,8S,9S)-3-Acetylamino-9-methoxy-2,6,8-trimethyl-10-phenyl-deca-4,6-dienoyl)-4-triisopropylsilanyloxy-pyrrolidine-2-carboxylic acid] is greater than 100 µM.
The compound `CO[C@@H](Cc1ccccc1)[C@@H](C)/C=C(C)/C=C/[C@H](NC(C)=O)[C@H](C)C(=O)N1[C@H](C(=O)O)CC[C@H]1C(=O)O` [(2S,5S)-1-((4E,6E)-(2S,3S,8S,9S)-3-Acetylamino-9-methoxy-2,6,8-trimethyl-10-phenyl-deca-4,6-dienoyl)-pyrrolidine-2,5-dicarboxylic acid] had an IC50 greater than 50 µM.
`CO[C@@H](Cc1ccccc1)[C@@H](C)/C=C(C)/C=C/[C@H](NC(C)=O)[C@H](C)C(=O)N1CCC[C@H]1C(=O)O` [(S)-1-((4E,6E)-(2S,3S,8S,9S)-3-Acetylamino-9-methoxy-2,6,8-trimethyl-10-phenyl-deca-4,6-dienoyl)-pyrrolidine-2-carboxylic acid]: the IC50 is greater than 100 µM.
In turn, `CO[C@@H](Cc1ccccc1)[C@@H](C)/C=C(C)/C=C/[C@H](NC(C)=O)[C@H](C)C(=O)N(CC(=O)O)CC(=O)O` [[((4E,6E)-(2S,3S,8S,9S)-3-Acetylamino-9-methoxy-2,6,8-trimethyl-10-phenyl-deca-4,6-dienoyl)-carboxymethyl-amino]-acetic acid] showed an IC50 greater than 100 µM.
Still for that read-out and setting: for `CC(=O)N[C@@H](/C=C/C(C)=C/c1ccc(-c2ccccc2)cc1)[C@H](C)C(=O)N[C@H](C)C(=O)O` [(R)-2-((4E,6E)-(2S,3S)-3-Acetylamino-7-biphenyl-4-yl-2,6-dimethyl-hepta-4,6-dienoylamino)-propionic acid] the value was greater than 100 µM; for `CO[C@@H](Cc1ccccc1)[C@@H](C)/C=C(C)/C=C/[C@H](NC(C)=O)[C@H](C)C(=O)N1C[C@H](C(=O)O)C[C@H]1C(=O)O` [(2S,4R)-1-((4E,6E)-(2S,3S,8S,9S)-3-Acetylamino-9-methoxy-2,6,8-trimethyl-10-phenyl-deca-4,6-dienoyl)-pyrrolidine-2,4-dicarboxylic acid], greater than 100 µM.
`CC(=O)N[C@@H](/C=C/C(C)=C/CCCc1ccccc1)[C@H](C)C(=O)N[C@H](C)C(=O)O` [(R)-2-((4E,6E)-(2S,3S)-3-Acetylamino-2,6-dimethyl-10-phenyl-deca-4,6-dienoylamino)-propionic acid]: the IC50 was greater than 100 µM.
Turning to `CO[C@@H](Cc1ccccc1)[C@@H](C)/C=C(C)/C=C/[C@H](NC(C)=O)[C@H](C)C(=O)N1C[C@@H](C(=O)O)C[C@@H]1C(=O)O` [(2R,4S)-1-((4E,6E)-(2S,3S,8S,9S)-3-Acetylamino-9-methoxy-2,6,8-trimethyl-10-phenyl-deca-4,6-dienoyl)-pyrrolidine-2,4-dicarboxylic acid], the IC50 is greater than 100 µM.
`COC(=O)[C@H]1CCCN1C(=O)[C@@H](C)[C@H](/C=C/C(C)=C/[C@H](C)[C@H](Cc1ccccc1)OC)NC(C)=O` [(R)-1-((4E,6E)-(2S,3S,8S,9S)-3-Acetylamino-9-methoxy-2,6,8-trimethyl-10-phenyl-deca-4,6-dienoyl)-pyrrolidine-2-carboxylic acid methyl ester] returned an IC50 greater than 100 µM.
`CO[C@@H](Cc1ccccc1)[C@@H](C)/C=C(C)/C=C/[C@H](NC(C)=O)[C@H](C)C(=O)N1CCCC1` [N-[(2E,4E)-(1S,6S,7S)-7-Methoxy-4,6-dimethyl-1-((S)-1-methyl-2-oxo-2-pyrrolidin-1-yl-ethyl)-8-phenyl-octa-2,4-dienyl]-acetamide] displayed an IC50 greater than 100 µM.
Compound `COC(=O)[C@@H]1CCCN1C(=O)[C@@H](C)[C@H](/C=C/C(C)=C/[C@H](C)[C@H](Cc1ccccc1)OC)NC(C)=O` [(S)-1-((4E,6E)-(2S,3S,8S,9S)-3-Acetylamino-9-methoxy-2,6,8-trimethyl-10-phenyl-deca-4,6-dienoyl)-pyrrolidine-2-carboxylic acid methyl ester] returned an IC50 greater than 100 µM.
With `CO[C@@H](Cc1ccccc1)[C@@H](C)/C=C(C)/C=C/[C@H](NC(C)=O)[C@H](C)C(=O)N[C@H](C)C(=O)O` [(R)-2-((4E,6E)-(2S,3S,8S,9S)-3-Acetylamino-9-methoxy-2,6,8-trimethyl-10-phenyl-deca-4,6-dienoylamino)-propionic acid], the IC50 was 25 µM.

The nature of the next assay: Inhibitory concentration against protein phosphatase 1 (PP1) using phosphorylase-a assay.
In turn, `CO[C@@H](Cc1ccccc1)[C@@H](C)/C=C(C)/C=C/[C@H](NC(C)=O)[C@H](C)C(=O)N[C@H](C)C(=O)O` [(R)-2-((4E,6E)-(2S,3S,8S,9S)-3-Acetylamino-9-methoxy-2,6,8-trimethyl-10-phenyl-deca-4,6-dienoylamino)-propionic acid] displayed an IC50 of 1 µM.
`CO[C@@H](Cc1ccccc1)[C@@H](C)/C=C(C)/C=C/[C@H](NC(C)=O)[C@H](C)C(=O)N[C@@H](C)C(=O)O` [(S)-2-((4E,6E)-(2S,3S,8S,9S)-3-Acetylamino-9-methoxy-2,6,8-trimethyl-10-phenyl-deca-4,6-dienoylamino)-propionic acid]: the IC50 is 170 µM.
On the same count and under the same terms, for `CO[C@@H](Cc1ccccc1)[C@@H](C)/C=C(C)/C=C/[C@H](NC(C)=O)[C@H](C)C(=O)NCC(=O)O` [((4E,6E)-(2S,3S,8S,9S)-3-Acetylamino-9-methoxy-2,6,8-trimethyl-10-phenyl-deca-4,6-dienoylamino)-acetic acid] the value was 5.6 µM.

Values taken from BindingDB's records for doi:10.1016/s0960-894x(03)00588-2 (University of California Irvine, 2003).
